From patent publication US20110118348A1, “Methods of stabilizing latanoprost in an aqueous solution” (SANTEN PHARMACEUTICAL CO., LTD., priority 2002, published 2011)
Marks after values point to notes of the source that are not given here.

Experiment: Stability Test of Latanoprost 1: residual ratio of latanoprost in phosphate buffer at each pH after storage at 60° C. or 70° C. (HPLC)
Assay type: physicochemical
Settings: for Residual ratio (%): pH 8.0, phosphate buffer
Procedure: 1) Latanoprost (0.0025 g) was weighed out in a 50 ml-beaker, a phosphate buffer (50 ml) having each pH (4.0, 5.0, 5.5, 6.0, 6.25, 6.5, 6.7 or 8.0) prepared in advance was added to the beaker, and the mixture was stirred with a magnetic stirrer. The mixture was stirred while warming it in a water bath at about 80° C. for about 30 minutes to dissolve latanoprost. 2) It was confirmed that latanoprost was dissolved, and pH was confirmed. 3) A glass ampoule was charged with each prepared solution (2.5 ml) and sealed by melting it. 4) It was stored at 60° C. or 70° C. 5) Sampling was carried out with time until 28th day after starting storage, latanoprost contents were measured by high performance liquid chromatography, and residual ratios were calculated. Samples having residual ratios of 95% or higher after storage at 60° C. for 28 days and residual ratios of 90% or higher after storage at 70° C. for 28 days were judged to be stable.

Residual ratio (%) after storage for 28 days (60° C., pH 4.0, phosphate buffer): 87.4%
Residual ratio (%) after storage for 28 days (60° C., pH 5.0, phosphate buffer): 98.9%
Residual ratio (%) after storage for 28 days (60° C., pH 5.5, phosphate buffer): 98.0%
Residual ratio (%) after storage for 28 days (60° C., pH 6.0, phosphate buffer): 98.9%
Residual ratio (%) after storage for 28 days (60° C., pH 6.25, phosphate buffer): 95.0%
Residual ratio (%) after storage for 28 days (60° C., pH 6.5, phosphate buffer): 92.4%
Residual ratio (%) after storage for 28 days (60° C., pH 6.7, phosphate buffer): 93.4%
Residual ratio (%) (60° C., value on 21st day): 30.0* %
Residual ratio (%) after storage for 28 days (70° C., pH 4.0, phosphate buffer): 76.7%
Residual ratio (%) after storage for 28 days (70° C., pH 5.0, phosphate buffer): 94.9%
Residual ratio (%) after storage for 28 days (70° C., pH 5.5, phosphate buffer): 94.6%
Residual ratio (%) after storage for 28 days (70° C., pH 6.0, phosphate buffer): 93.1%
Residual ratio (%) after storage for 28 days (70° C., pH 6.25, phosphate buffer): 92.0%
Residual ratio (%) after storage for 28 days (70° C., pH 6.5, phosphate buffer): 82.7%
Residual ratio (%) (70° C., value on 12th day): 14.1** %
SMILES: CC(C)OC(=O)CCC/C=C\C[C@@H]1[C@@H](CC[C@@H](O)CCc2ccccc2)[C@H](O)C[C@@H]1O [latanoprost, isopropyl (Z)-7[(1R,2R,3R,5S)3,5-dihydroxy-2-[(3R)-3-hydroxy-5-phenylpentyl]cyclopentyl]-5-heptanoate]
